Experimental data: patent US6867305B2, “Synthesis of epothilones, intermediates thereto and analogues thereof” (Sloan-Kettering Institute for Cancer Research, priority 1996, dated 2005)
Several values for one entry are separate records, joined by “and”; a condition that tells them apart may be missing. Equal values may be shown once. Read-outs that look alike come from different tables or passages of the source. Starred links: 1 amine or outer side, 2 acyl side, 3 side chain; linkers in the order of their positions; H or OH if unused. Positions of bridges follow the written chain, without caps; N, C: chain ends. Non-standard residues stand in square brackets, D forms with d. Residues, ends and D or L forms follow the SMILES beside them. Chains are numbered I, II in the order given. Actinocin(9to1) = Cc1c2oc3c(C)ccc(C(=O)[*:1])c3nc-2c(C(=O)[*:2])c(N)c1=O; NMeV = CN[C@H](C(=O)O)C(C)C; Sar = CNCC(=O)O

What was measured:
[1] = system: DC-3F hamster lung fibroblasts; assay: Tumor cell growth inhibition in vitro; format: cell-based; details: read-out: IC50
Procedure: (§1) The fresh medium containing each drug was replenished every 7-14 days. […] In each case ,the drug-exposed cells were resuspended in fresh media for a minimum of 4 days before the experiments for the cell-growth inhibition was carried out.
(§2) The cells were cultured at an initial density of 2-5×10^4 cells per ml. They were maintained in a 5% CO2-humidified atmosphere at 37° C. in RPMI mediun 1640 (GIBCO/BRL) containing penicillin (100 units/ml), streptomycin (100 μg/ml) (GIBCO/BRL), and 5% heat-inactivated fetal bovine serum. For solid tumor cells growing in a monolayer (such as MCF-7/Adr), cytotoxicitiy of the drug was determined in 96-well microtiter plates by using the sulforhodamine B method as described by Skehan et al (23) for measuring the cellular protein content. For cells that were grown in suspension (such as CCRF-CEM and its sublines), cytotoxicitiy was measured by using the 2,-3-bis(2-methoxy-4-nitro-5-sulfophenyl)-5carboxanilide)-2H terazodium hydroxide (XTT)-microculture tetrazonium method (24) in duplicate in 96-well microtiter plates. For both methods, the absorbance of each well was measured with a microplate reader (EL-340, Bio-Tek, Burlington, Vt.). Each run entailed six or seven concentrations of the tested drugs. Dose-effect relationship data were analyzed with the median-effect plot (25) by using a previously described computer program (26).

[2] = system: tubulin; assay: Tubulin-binding / tubulin polymerization assay; format: biochemical
[3] = system: CCRF-CEM human T-cell acute lymphoblastic leukemia cells; assay: Tumor cell growth inhibition in vitro (XTT, 72 h); format: cell-based; details: CCRF-CEM, 72 h incubation
Procedure: as §1, §2

[4] = system: CCRF-CEM/VBL100 (vinblastine-resistant subline); assay: Tumor cell growth inhibition in vitro (XTT, 72 h); format: cell-based, human
Procedure: as §1, §2

[5] = system: CCRF-CEM/VM2; assay: Cell growth inhibition, resistant subline; format: cell-based, human
Procedure: as §1, §2

[6] = system: PC-3 prostate adenocarcinoma xenograft; assay: Human tumor xenograft in nude mice; format: in vivo
Procedure: (§3) Depending on the tumor type, treatment started on day 10 to day 21 when subcutaneous tumor size reached 35-200 mm^3, except otherwise indicated. Tumor size and body-weight were recorded every other day (Q2D) and, for humane reasons, the animals were sacrificed when tumor size reached ≧10% of body-weight. Each group, including untreated control, consisted of 3-5 animals unless otherwise indicated.
(§4) Athymic nude mice bearing the nu/nu gene were used for all human tumor xenografts. Outbred, Swiss-background mice were obtained from Charles River Laboratories. Male mice 8 weeks or older weighing 22 g and up were used for most experiments. The drug was administered via the tail vein for 6 hr.-i.v. infusion. Each individual mouse was confined in a perforated Falcon polypropylene tube restrainer for drug administration. Tumor volume was assessed by measuring length×width×height (or width) using a caliper. The programmable Harvard PHD2000 syringe pump (Harvard Apparatus) with multi-track was used for i.v. infusion. […] All animal studies were conducted in accordance with the guidelines of the National Institutes of Health “Guide for the Care and Use of Animals” and the protocol approved by the Memorial Sloan-Kettering Cancer Center's Institutional Animal Care and Use Committee. In keeping with the policy of this committee for the humane treatment of tumor-bearing animals, mice were euthanized when tumors reached ≧10% of their total body weight.
(§5) Human tumor cells (5×10^6) or tumor tissue (30-50 mg) were implanted s.c. flank in nu/nu mice (Charles River Laboratories, Wilmington, Mass.). When tumor grew to a specified size, treatment was started by every-other day×5 with 6 hr i.v.-infusion, unless otherwise indicated. Tumor volume was measured with calipers in three dimensions (length×width×height or width). Body-weight changes and lethality were monitored every other day.

[7] = system: A549 lung carcinoma xenograft; assay: Human tumor xenograft in nude mice; format: in vivo; details: A549, i.v. infusion
Procedure: as §3, §4, §5

[8] = system: CCRF-CEM/VM1 (teniposide-resistant subline); assay: Tumor cell growth inhibition in vitro (XTT, 72 h); format: cell-based, human; details: Homo sapiens, CCRF-CEM, 72 h
Procedure: as §1, §2

[9] = system: MCF-7/Adr mammary xenograft; assay: Human tumor xenograft in nude mice; format: in vivo
[10] = system: MCF-7 human mammary adenocarcinoma; assay: Tumor cell growth inhibition in vitro; format: cell-based; details: read-out: IC50
Procedure: as §2, with “They were maintained in a 5% CO2-humidified atmosphere at 37° C. in RPMI mediun 1640 (GIBCO/BRL) containing penicillin (100 units/ml), streptomycin (100 μg/ml) (GIBCO/BRL), and 5% heat-inactivated fetal bovine serum.” left out

[11] = system: MCF-7/Adr; assay: Tumor cell growth inhibition in vitro; format: cell-based, human; details: MCF-7/Adr
Procedure: as §2, with “They were maintained in a 5% CO2-humidified atmosphere at 37° C. in RPMI mediun 1640 (GIBCO/BRL) containing penicillin (100 units/ml), streptomycin (100 μg/ml) (GIBCO/BRL), and 5% heat-inactivated fetal bovine serum.” left out

[12] = system: K562 chronic myelocytic leukemia xenograft; assay: Human tumor xenograft in nude mice; format: in vivo
Procedure: FIG. 34 depicts tumor size in nude mice bearing human leukemia […] tumor following 6 mg/kg C-15-Aza-EpoB, Q2D×6 and 30 mg/kg dEpoF, Q2ED×6 (i.v. infusion […].). K562 tumor cells (1×10^7 in 0.2 mL) were inoculated to nude mice on day 0. Mice were treated with 6 mg/kg aza-EpoB, 6 h-i.v. infusion on days 20, 22, 24, 26, 28 and 30 (Δ, n=3). The same group of mice were then treated with 30 mg/kg dEpoF, 6 h-i.v. infusion on days 42, 44, 46, 48, 52, and 54 (Δ, n=3). […] The control mice (∘, n=3) received vehicle only.
K562 tumor cells (1×10^7, in 0.2 ml/mouse) were implanted s.c. on day 0. […] The control mice (∘, n=4) received vehicle, Cremophor-ethanol (1:1), only. The vertical bars indicate mean tumor size in mm^3±S.E.
as §3, §4, §5

Compound: Cc1c2oc3c(C)ccc(C(=O)N[C@@H]4C(=O)N[C@H](C(C)C)C(=O)N5CCC[C@H]5C(=O)N(C)CC(=O)N(C)[C@@H](C(C)C)C(=O)O[C@@H]4C)c3nc-2c(C(=O)N[C@@H]2C(=O)N[C@H](C(C)C)C(=O)N3CCC[C@H]3C(=O)N(C)CC(=O)N(C)[C@@H](C(C)C)C(=O)O[C@@H]2C)c(N)c1=O [Actinomycin D, actinomycin D, reference compound] (I: T[dV]P[Sar][NMeV] / II: T[dV]P[Sar][NMeV]; ester I:1-I:C, II:1-II:C; linker I:N-II:N via Actinocin(9to1))
- IC50 [1]: 0.25 nM and 0.31 nM

Compound: C/C1=C/CC(/C(C)=C/c2csc(COC(=O)c3c(F)c(F)c(N=[N+]=[N-])c(F)c3F)n2)OC(=O)CC(O)C(C)(C)C(=O)C(C)C(O)[C@@H](C)CCC1 (stereo partly drawn) [compound 66]
- induction of tubulin polymerization [2]: did not induce tubulin polymerization

Compound: CC1=CCC(C(C)=Cc2csc(C)n2)NC(=O)CC(O)C(C)(C)C(=O)C(C)C(O)C(C)CCC1 [15-epi-aza-dEpoB, 12,13,15-desoxy-15(R)-aza-epothilone B]
- IC50 ([3]; read-out: IC50): 119 nM
- IC50 ([4]; CCRF-CEM/VBL100, 72 h, read-out: IC50): 551 nM
- cross-resistance (fold of resistance vs parent cell line) ([4]; CCRF-CEM/VBL100 vs CCRF-CEM): 4.6 x

Compound: COc1cc([C@@H]2c3cc4c(cc3[C@@H](O[C@@H]3O[C@@H]5CO[C@@H](C)O[C@H]5[C@H](O)[C@H]3O)[C@H]3COC(=O)[C@H]23)OCO4)cc(OC)c1O [Etoposide, etoposide, reference compound]
- IC50 [3]: 29 nM
- fold resistance vs original CCRF-CEM ([5]; CCRF-CEM/VM2): 69 fold
- IC50 ([5]; Homo sapiens, CCRF-CEM/VM2, exposed to teniposide 12 months): 19800 nM
- Therapeutic Effect Rank Order ([6]; PC-3, i.v. infusion): Taxol, VBL>dEpoB>>VP-16
- Therapeutic Effect Rank Order [7]: Taxol, dEpoB, VBL>VP-16
- IC50 [8]: 3440 nM
- Therapeutic Effect Rank Order ([9]; i.v. infusion): dEpoB>>VP-16, Taxol>VBL, Adriamycin

Compound: COc1cccc2c1C(=O)c1c(O)c3c(c(O)c1C2=O)C[C@@](O)(C(=O)CO)C[C@@H]3O[C@H]1C[C@H](N)[C@H](O)[C@H](C)O1 [Adriamycin, doxorubicin, reference compound]
- IC50 ([10]; Homo sapiens, MCF7, MCF-7): 81 nM
- IC50 ([10]; MCF-7): 90 nM
- Therapeutic Effect Rank Order ([6]; PC-3, i.v. or i/p.): Taxol>dEpoB>>Adriamycin
- IC50 ([11]; Homo sapiens, NCI/ADR-RES): 280 nM
- IC50 [11]: 316 nM
- Therapeutic Effect Rank Order ([9]; i.p., ref 19 (Table 5)): dEpoB>Camptothecin>Adriamycin>Taxol
- Therapeutic Effect Rank Order ([9]; i.v. infusion): dEpoB>>VP-16, Taxol>VBL, Adriamycin
- Therapeutic Effect Rank Order ([12]; K562, i.v. infusion, FIG. 3 & 4): dEpoB>>>VBL> Taxol> Adriamycin
- therapeutic effect ([12]; K562, dEpoB 30 mg/kg, Taxol 20 mg/kg 6 hr i.v. infusion, Adriamycin 3 mg/kg, vinblastine 2.5 mg/kg i.v., every other day from day 20 (FIG. 36)): only partial curative or remissive effects
